Entries after “also recorded” stand apart in the source; their conditions may differ. Where a name gives a salt, the structure may show the parent alone. Read-outs that look alike come from different tables or passages of the source. Blank lines part the entries; values can stand above or below the compound they belong to. Bridge positions count the residues as written; N and C are the ends. Ends that are not written are not given here. Peptide text beside a SMILES is read from it. * marks the point of attachment. Benzoyl(4-I) = O=C(c1ccc(I)cc1)*
Assays:
gel filtered platelets = assay: Platelet aggregation (lumiaggregometry); format: cell-based
Description: Aggregation by platelets stir red (1000 rpm) at 37° C. was assayed using the Chrono-Log Lumiaggregometer. Antibody mAb3-758, mAb10-758 or mAb15-758 were added to 250 μL of 2×10^8 GFP/mL, in platelet buffer containing 2 mM CaCl, in the absence or presence of 20 μM ADP followed by the addition of 200 μg/mL fibrinogen. In some experiments PGE1, apyrase and PGI2 were included as activation inhibitors. Changes in light transmittance were recorded and transferred to Microsoft Excel for data plotting. For the determination of EC50 and IC50 of mAb3-758 and mAb10-758, respectively, control aggregations Pusing ADP alone were performed with each set of concentrations tested.

[1] = target: T1, GPIIb/IIIa activation state on gel filtered platelets (Homo sapiens, UniProt P05106+P08514); assay: PAC-1 binding to gel filtered platelets; format: cell-based; details: PGE1, PGI2 and apyrase prior to antibody or agonist
T1 construct: Gel filtered platelets (GFP) were prepared from blood anticoagulated with 13 mM trisodium citrate; endogenous in cells; host or cells: gel filtered platelets from citrated blood
T1 sequence (P08514 32-887 limits assumed): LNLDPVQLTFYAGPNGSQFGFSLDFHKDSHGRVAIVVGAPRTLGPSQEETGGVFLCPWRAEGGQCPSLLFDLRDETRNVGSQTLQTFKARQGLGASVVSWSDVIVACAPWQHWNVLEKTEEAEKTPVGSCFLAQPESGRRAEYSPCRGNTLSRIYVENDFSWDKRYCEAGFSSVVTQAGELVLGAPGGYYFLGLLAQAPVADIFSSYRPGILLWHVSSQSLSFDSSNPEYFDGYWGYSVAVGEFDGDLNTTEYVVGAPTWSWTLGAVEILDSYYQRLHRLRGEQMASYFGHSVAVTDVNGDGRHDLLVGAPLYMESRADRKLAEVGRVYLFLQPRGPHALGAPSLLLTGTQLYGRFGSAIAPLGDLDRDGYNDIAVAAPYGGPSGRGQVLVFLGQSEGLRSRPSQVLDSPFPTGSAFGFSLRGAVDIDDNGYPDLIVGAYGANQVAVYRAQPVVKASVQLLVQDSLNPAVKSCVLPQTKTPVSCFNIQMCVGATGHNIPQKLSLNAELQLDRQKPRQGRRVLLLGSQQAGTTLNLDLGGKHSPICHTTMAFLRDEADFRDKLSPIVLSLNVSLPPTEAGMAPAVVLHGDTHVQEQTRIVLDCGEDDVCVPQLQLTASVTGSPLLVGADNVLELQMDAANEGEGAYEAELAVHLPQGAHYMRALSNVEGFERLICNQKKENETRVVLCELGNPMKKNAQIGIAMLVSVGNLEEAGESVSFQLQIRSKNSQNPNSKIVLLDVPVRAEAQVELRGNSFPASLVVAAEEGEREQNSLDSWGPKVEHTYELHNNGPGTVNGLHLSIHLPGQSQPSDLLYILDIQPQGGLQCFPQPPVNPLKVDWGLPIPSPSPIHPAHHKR
T1 sequence (P08514 891-1039 partner limits assumed): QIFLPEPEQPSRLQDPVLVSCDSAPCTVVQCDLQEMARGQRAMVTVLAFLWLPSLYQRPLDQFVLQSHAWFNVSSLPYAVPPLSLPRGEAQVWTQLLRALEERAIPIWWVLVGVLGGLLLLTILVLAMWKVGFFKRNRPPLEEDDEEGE
T1 sequence (P05106 27-788): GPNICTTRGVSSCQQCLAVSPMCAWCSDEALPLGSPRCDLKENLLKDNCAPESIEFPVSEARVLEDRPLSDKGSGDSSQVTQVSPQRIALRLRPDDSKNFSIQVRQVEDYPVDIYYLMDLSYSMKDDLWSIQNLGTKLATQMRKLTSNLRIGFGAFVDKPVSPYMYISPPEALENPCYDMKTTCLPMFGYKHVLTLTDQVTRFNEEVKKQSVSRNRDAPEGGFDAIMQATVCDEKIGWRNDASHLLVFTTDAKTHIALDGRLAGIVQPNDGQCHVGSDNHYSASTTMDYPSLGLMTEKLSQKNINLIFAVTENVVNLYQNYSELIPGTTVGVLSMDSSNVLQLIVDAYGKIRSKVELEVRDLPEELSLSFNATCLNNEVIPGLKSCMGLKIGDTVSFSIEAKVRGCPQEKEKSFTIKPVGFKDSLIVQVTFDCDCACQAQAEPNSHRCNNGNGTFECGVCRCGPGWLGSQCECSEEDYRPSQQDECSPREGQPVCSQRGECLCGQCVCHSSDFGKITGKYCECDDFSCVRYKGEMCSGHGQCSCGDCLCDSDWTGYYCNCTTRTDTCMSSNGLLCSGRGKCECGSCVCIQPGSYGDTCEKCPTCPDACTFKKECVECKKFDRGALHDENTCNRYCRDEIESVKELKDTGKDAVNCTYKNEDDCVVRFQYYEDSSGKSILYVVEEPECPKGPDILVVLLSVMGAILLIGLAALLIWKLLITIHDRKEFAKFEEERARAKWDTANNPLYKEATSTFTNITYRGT
Description: PAC-1 (Shattil et al. (1985) J. Biol. Chem. 260, 11107-11114) binding studies were done using 20 μg/mL FITC conjugated PAC-1 (University of Pennsylvania Cell Center (Philadelphia, Pa.)) diluted in PBS. 25 μL of resting 1×10^8 GFP/mL, in flow cytometry buffer containing 1 mM CaCl, was combined with 100 nM of antibody and FITC conjugated PAC-1 to a final volume of 100 μL. The sample was incubated for 1 hour at room temperature. Following incubation the cells were diluted to 300 μL in flow cytometry buffer immediately before flow cytometry analysis. Contol PAC-1 binding to activated platelets was tested by first activating the receptors with either 1 nM thrombin or 20 μM ADP. Some samples were pretreated with activation inhibitors 100 μM PGE1, 20 μg/ml apyrase (Sigma Chemical Company (St. Louis, Mo.)) and 10 μM PGI2 (BioMol (Plymouth Meeting, Pa.)) prior to antibody addition or platelet activation with ADP or thrombin.

[2] = target: T2, purified human platelet αIIbβ3 (Homo sapiens, UniProt P05106+P08514); assay: Disassociation constants of GP IIb/IIIa antagonists on purified human αIIbβ3; format: binding
T2 construct: detergent solubilized platelet lysates were passed over a Concanavalin A-Sepharose 4B column; from tissue; host or cells: human platelets (given as outdated human plasma; platelet lysates)
T2 sequence (P08514 32-887 limits assumed): as the sequence (P08514 32-887 limits assumed) above
T2 sequence (P08514 891-1039 partner limits assumed): as the sequence (P08514 891-1039 partner limits assumed) above
T2 sequence (P05106 27-788): as the sequence (P05106 27-788) above
Description: GPIIb/IIIa was purified from outdated human plasma using a slight modification of the procedure described by Kouns et al. (Kouns et al. (1992) J. Biol. Chem. 267, 18844-18851). Briefly, detergent solubilized platelet lysates were passed over a Concanavalin A-Sepharose 4B column (Sigma Chemicals, St. Louis, Mo.), followed by elution with methyl-α-D mannopyranozide (Sigma Chemical, St. Louis, Mo.). […] All fractions were analyzed for purity by SDS-PAGE electrophoresis.

[3] = target: T3, GPIIb/IIIa on gel filtered platelets (Homo sapiens, UniProt P05106+P08514); assay: Flow cytometry binding assay on platelets: effect of receptor occupancy or ADP activation on antibody binding; details: GFP pretreated with 1 μM ligand, 100 nM antibody
T3 construct: Gel filtered platelets (GFP) were prepared from blood anticoagulated with 13 mM trisodium citrate; endogenous in cells; host or cells: gel filtered platelets from citrated blood
T3 sequence (P08514 32-887 limits assumed): as the sequence (P08514 32-887 limits assumed) above
T3 sequence (P08514 891-1039 partner limits assumed): as the sequence (P08514 891-1039 partner limits assumed) above
T3 sequence (P05106 27-788): as the sequence (P05106 27-788) above
Description: The platelet bound antibodies were separated from free antibodies by centrifugation in the presence of 100 μM PGE1 followed by resuspension in flow cytometry buffer containing 100 nM of FITC conjugated goat anti-mouse antibody, incubated for 1 hour at room temperature and analyzed using flow cytometry. The light scatter and fluorescence intensity of 20000 cells was collected using logarithmic gain.

[4] = activated form of purified human αIIbβ3, read-out: Activated Form KD-A
[5] = unactivated form of purified human αIIbβ3, read-out: Unactivated Form KD-B
[6] = Activated Form KD-A, activated form of purified human αIIbβ3
[7] = Unactivated Form KD-B, unactivated form of purified human αIIbβ3

Compound: N=C(N)NCCC[C@@H]1NC(=O)[C@@H]2CCCN2C(=O)[C@H](CC(N)=O)NC(=O)[C@@H](NC(=O)c2ccc(I)cc2)CSSC[C@@H](C(=O)O)NC(=O)[C@H](CC(=O)O)NC(=O)CNC1=O [compound B, cyclo-4-I-benzoyl-(Cys-Asn-Pro-Arg-Gly-Asp-Cys)-OH HOAc salt] ({Benzoyl(4-I)}-CNPRGDC-OH; disulfide 1-7 (inferred))
Kd [2, 6]: 1.5 nM | Kd [2, 7]: 60 nM

Compound: ECESGPCCRNCKFLKEGTICKRARGDDMDDYCNGKTCDCPRNPHKGPAT (disulfide 2-11, 7-32, 8-37, 20-39 (inferred)) [echistatin]
Kd [2, 6]: 4.6 nM | Kd [2, 7]: 4.9 nM

Compound: C[C@H](CC(=O)O)NC(=O)CN1CCC[C@@H](CCC2CCNCC2)C1=O [compound C, N-[3(R)-[2-(Piperidin-4-yl)ethyl]-2-piperidon-1-yl] acetyl-3(R)-methyl-β-alanine]
Kd [2, 4]: 4.5 nM | Kd [2, 5]: 610 nM

Second part, led by results:

EC50 (gel filtered platelets; GFP with fibrinogen, read-out: EC50 ADP stimulated platelet aggregation): 1700 nM | PAC-1 binding after pretreatment with activation inhibitors [1]: completely blocked
Compound: Nc1ncnc2c1ncn2[C@@H]1O[C@H](COP(=O)(O)OP(=O)(O)O)[C@@H](O)[C@H]1O [ADP]
platelet aggregation response stimulated by the substance alone (gel filtered platelets; 100 nM mAb10-758, 1 μM mAb15-758, 20 μM ADP, control platelets): 69.6% | aggregation response following incubation with fibrinogen receptor antagonist (gel filtered platelets; 10 μM of antagonist): 2.5% | aggregation response of platelets pretreated with activation inhibitors (gel filtered platelets; mixture of PGE1, PGI2 and apyrase, 100 nM mAb10-758, 1 μM mAb15-758): 3.3% | aggregation response in control platelets of the antagonist experiment (gel filtered platelets; no antagonist): 69.6%

Kd [2, 4]: 0.96 nM | Kd [2, 5]: 6.3 nM
Compound: N=C(N)c1ccc(C(=O)NC(Cc2ccc(O)cc2)C(=O)N2CCC(OCC(=O)O)CC2)cc1 (stereo not shown) [RO-44-9883, {1-[2-(4-carbamimidoyl-benzoylamino)3-(4-hydroxy-phenyl)propionyl]-piperidin-4-yloxy}-acetic acid]
induction of the neo-epitope recognized by anti-LIBS mAb10-758 and mAb15-758 [3]: induced; also recorded: induce the neo-epitope

Kd [2, 4]: > 100000 nM | Kd [2, 5]: > 100000 nM
Compound: O=C(O)COc1ccc2c(c1)CN(C(=O)c1ccc(N3CCNCC3)cc1)CC2 [compound A, 4-(N-piperazine)benzoyl-(N-1,2,3,4-tetrahydroisoquinoline-7-yl)oxy-acetic acid]

Kd [2, 4]: 0.03 nM | Kd [2, 5]: 2.4 nM
Compound: O=C(NC[C@H](NS(=O)(=O)c1cccnc1)C(=O)O)c1cc2cc(CCC3CCNCC3)sc2s1 [compound D, 2-(S)-(3-pyridylsulfonyl)amino-3-N-[5-[2-(4-piperidinyl)ethyl]-thienothiophene-2-carboxamide]propionic acid]

Source: US6538112B2, “Hybridomas and monoclonal antibodies for an anticoagulant test” (Merck & Co., Inc., priority 1997, dated 2003)
